Measurements reported in US8802849B2, “Tricyclic benzo[4,5]thieno-[2,3-d]pyrimidine-4-yl-amin derivatives, their salts, process for producing the compounds and their pharmaceutical use” (Vichem Chemie Kutató Kft., priority 2008, dated 2014).

Tests used:
[1] = target: GSK-3beta (Homo sapiens, UniProt P49841); assay: GSK-3beta kinase assay; type: biochemical; conditions: 10 μM compound; read-out: GSK-3beta percent of inhibition
Method: (§1) General description of the kinase assays: the kinase activity was assayed in 96-well microtiter plates at a final compound concentration of 10 μM in a total volume of 50 μl. Compounds were dissolved in 100% DMSO to prepare a 10 mM stock solution and than diluted with buffer to reach a 10 μM (or the required) final concentration. The kinase concentration was used to yield 10% ATP turn over. The ATP concentration was used at the KmATP and 12.5 μCi/ml adenosine 5′[γ-33P]triphosphate. The substrate concentration was used at 5 fold excess over the Km for the substrate. The reaction was incubated for 1 hour at room temperature and stopped by addition of 10 μl 50 mM EDTA. The assay was transferred to a 96 well MAPH filter plate (Millipore). The radioactivity was counted on a Microbeta microplate counter.

[2] = target: Abl (Homo sapiens, UniProt P00519); assay: Abl kinase assay; type: biochemical; conditions: 10 μM compound; read-out: Abl percent of inhibition
Method: as §1

[3] = target: ROCK2 (Homo sapiens, UniProt O75116); assay: ROCK2 kinase assay; type: biochemical; conditions: 10 μM compound; read-out: ROCK2 percent of inhibition
ROCK2, sequence (O75116 whole entry, species assumed): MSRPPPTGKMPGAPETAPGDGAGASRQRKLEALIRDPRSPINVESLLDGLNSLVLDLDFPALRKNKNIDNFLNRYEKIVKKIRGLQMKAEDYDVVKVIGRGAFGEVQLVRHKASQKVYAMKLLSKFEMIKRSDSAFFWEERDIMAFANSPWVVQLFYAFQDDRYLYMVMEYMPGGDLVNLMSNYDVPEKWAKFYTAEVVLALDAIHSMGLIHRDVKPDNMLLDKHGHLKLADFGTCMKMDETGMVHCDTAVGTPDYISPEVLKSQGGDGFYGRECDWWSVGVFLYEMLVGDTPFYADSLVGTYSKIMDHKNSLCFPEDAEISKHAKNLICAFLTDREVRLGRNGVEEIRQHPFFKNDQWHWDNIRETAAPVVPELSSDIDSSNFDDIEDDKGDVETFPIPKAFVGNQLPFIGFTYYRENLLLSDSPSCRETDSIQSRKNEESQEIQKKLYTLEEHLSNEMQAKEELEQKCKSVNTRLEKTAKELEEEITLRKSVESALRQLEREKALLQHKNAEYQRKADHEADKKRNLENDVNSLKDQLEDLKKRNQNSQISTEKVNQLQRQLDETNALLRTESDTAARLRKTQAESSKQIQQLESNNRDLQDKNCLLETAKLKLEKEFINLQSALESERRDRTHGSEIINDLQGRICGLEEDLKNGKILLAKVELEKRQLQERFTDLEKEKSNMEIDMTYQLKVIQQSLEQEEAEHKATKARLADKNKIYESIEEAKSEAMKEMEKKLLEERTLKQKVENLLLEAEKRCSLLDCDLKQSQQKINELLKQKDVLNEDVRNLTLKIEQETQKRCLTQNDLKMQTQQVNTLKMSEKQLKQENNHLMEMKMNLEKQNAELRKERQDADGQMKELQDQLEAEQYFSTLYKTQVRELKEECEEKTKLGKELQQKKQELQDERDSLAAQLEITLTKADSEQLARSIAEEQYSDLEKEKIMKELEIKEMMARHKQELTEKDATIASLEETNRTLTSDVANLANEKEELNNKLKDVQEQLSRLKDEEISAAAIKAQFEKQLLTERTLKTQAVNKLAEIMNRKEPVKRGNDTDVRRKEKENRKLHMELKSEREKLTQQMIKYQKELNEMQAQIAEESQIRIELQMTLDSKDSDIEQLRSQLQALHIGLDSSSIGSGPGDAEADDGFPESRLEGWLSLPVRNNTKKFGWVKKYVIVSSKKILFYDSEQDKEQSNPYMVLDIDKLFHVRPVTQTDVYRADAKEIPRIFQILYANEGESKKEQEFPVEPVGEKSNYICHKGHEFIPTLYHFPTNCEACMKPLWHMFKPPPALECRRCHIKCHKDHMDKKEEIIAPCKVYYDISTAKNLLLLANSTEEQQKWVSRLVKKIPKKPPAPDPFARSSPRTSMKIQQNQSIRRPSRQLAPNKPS
Method: as §1

[4] = target: InsR (Homo sapiens, UniProt P06213); assay: InsR kinase assay; type: biochemical; conditions: 10 μM compound; read-out: InsR percent of inhibition
InsR, sequence (P06213 28-1382, species assumed): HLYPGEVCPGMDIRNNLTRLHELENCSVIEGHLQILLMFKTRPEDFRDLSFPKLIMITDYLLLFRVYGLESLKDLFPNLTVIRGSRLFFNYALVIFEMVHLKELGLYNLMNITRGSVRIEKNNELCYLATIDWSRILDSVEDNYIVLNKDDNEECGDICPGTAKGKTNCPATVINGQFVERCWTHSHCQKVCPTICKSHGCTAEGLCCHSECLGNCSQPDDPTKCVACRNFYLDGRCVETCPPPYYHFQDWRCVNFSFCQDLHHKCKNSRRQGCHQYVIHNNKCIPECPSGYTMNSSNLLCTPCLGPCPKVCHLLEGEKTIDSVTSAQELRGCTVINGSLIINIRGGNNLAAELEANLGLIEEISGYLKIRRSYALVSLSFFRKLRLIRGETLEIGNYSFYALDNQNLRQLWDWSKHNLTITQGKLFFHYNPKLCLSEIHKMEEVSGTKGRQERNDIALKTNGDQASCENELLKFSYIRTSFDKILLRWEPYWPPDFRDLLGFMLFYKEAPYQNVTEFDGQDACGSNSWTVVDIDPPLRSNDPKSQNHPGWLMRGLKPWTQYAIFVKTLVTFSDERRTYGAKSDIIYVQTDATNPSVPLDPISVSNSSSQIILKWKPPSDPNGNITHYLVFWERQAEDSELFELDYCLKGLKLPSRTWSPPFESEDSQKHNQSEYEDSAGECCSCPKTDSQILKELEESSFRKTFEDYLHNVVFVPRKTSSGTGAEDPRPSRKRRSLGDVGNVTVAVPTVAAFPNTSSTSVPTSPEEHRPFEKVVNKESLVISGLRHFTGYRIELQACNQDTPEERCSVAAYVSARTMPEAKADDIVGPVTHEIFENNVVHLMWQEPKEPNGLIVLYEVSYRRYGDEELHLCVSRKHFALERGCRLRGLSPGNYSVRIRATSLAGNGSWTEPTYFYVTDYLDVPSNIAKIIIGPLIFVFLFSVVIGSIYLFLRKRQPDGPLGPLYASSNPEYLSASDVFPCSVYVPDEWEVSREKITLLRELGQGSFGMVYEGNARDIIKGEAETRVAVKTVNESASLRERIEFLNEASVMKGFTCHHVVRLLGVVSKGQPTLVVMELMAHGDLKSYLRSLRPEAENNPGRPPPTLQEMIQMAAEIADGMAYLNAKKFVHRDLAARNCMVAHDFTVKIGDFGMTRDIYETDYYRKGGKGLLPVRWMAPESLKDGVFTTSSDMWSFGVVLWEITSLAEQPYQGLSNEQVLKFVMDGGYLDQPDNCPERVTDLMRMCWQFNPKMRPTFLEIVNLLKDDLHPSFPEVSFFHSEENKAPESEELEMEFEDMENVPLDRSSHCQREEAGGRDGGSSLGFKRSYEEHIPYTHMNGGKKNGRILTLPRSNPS
Method: as §1

[5] = target: PDGFR-beta (Homo sapiens, UniProt P09619); assay: PDGFR-beta kinase assay; type: biochemical; conditions: 10 μM compound; read-out: PDGFR-beta percent of inhibition
Method: as §1

[6] = target: RSK1 (Homo sapiens, UniProt Q15418); assay: RSK1 kinase assay; type: biochemical; conditions: 10 μM compound; read-out: RSK1 percent of inhibition
Method: as §1

[7] = target: CDK2/CycA (Homo sapiens, UniProt P24941); assay: CDK2/CycA kinase assay; type: biochemical; conditions: 10 μM compound; read-out: CDK2/CycA percent of inhibition
Method: as §1

[8] = target: AKT1/PKBa (Homo sapiens, UniProt P31749); assay: AKT1/PKBa kinase assay; type: biochemical; conditions: 10 μM compound; read-out: AKT1/PKBa percent of inhibition
Method: as §1

[9] = target: c-Src (Homo sapiens, UniProt P12931); assay: c-Src kinase assay; type: biochemical; conditions: 10 μM compound; read-out: c-Src percent of inhibition
Method: as §1

[10] = target: T1, IKK-beta (Homo sapiens, UniProt O14920); assay: IKK-beta kinase assay; type: biochemical; conditions: 10 μM compound; read-out: IKK-beta percent of inhibition
T1 sequence (O14920 1-756): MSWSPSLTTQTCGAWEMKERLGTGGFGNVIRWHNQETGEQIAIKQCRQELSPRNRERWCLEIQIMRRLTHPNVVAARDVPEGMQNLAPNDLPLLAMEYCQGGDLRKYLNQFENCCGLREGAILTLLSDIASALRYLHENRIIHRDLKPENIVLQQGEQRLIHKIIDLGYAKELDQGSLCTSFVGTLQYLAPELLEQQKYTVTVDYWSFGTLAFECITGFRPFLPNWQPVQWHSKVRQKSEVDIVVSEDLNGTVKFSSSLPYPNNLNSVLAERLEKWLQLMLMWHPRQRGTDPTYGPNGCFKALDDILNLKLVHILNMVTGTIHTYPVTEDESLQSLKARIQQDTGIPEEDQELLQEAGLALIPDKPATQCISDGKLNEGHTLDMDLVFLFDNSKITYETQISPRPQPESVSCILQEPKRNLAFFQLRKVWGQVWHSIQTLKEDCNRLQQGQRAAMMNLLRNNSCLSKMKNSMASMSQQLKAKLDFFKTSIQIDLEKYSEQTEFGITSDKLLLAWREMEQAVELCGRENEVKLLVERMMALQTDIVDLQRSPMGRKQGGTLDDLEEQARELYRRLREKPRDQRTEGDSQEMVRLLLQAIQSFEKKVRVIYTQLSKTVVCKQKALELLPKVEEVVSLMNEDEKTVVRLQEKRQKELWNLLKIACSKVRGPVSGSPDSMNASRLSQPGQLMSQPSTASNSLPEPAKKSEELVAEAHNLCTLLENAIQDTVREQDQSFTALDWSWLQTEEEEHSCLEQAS
Method: as §1

[11] = target: EGFR (Homo sapiens, UniProt P00533); assay: EGFR kinase assay (33P-ATP filter plate); type: biochemical; conditions: for inhibition at 10 µM: 10 μM compound, read-out: EGFR percent of inhibition; for IC50: EGFR-PTK assay
Method: as §1

[12] = target: SRPK1 (Homo sapiens, UniProt Q96SB4); assay: SRPK1 kinase assay; type: biochemical; conditions: 10 μM compound; read-out: SRPK1 percent of inhibition
Method: as §1

[13] = target: P56Lck (Homo sapiens, UniProt P06239); assay: P56Lck kinase assay; type: biochemical; conditions: 10 μM compound; read-out: P56Lck percent of inhibition
Method: as §1

[14] = target: MAPK-ERK1 (Homo sapiens, UniProt P27361); assay: MAPK-ERK1 kinase assay; type: biochemical; conditions: 10 μM compound; read-out: MAPK-ERK1 percent of inhibition
MAPK-ERK1, sequence (P27361 whole entry): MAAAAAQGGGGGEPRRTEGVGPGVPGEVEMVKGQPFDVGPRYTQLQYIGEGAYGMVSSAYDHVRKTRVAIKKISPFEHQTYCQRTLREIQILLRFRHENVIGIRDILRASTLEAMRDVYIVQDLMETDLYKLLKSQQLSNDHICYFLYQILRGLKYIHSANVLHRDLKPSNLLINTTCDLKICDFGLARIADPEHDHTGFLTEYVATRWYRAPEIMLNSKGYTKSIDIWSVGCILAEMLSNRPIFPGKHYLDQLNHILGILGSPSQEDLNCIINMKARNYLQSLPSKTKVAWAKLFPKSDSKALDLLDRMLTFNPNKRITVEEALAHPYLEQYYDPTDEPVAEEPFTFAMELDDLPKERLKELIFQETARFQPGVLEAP
Method: as §1

[15] = target: cMet (Homo sapiens, UniProt P08581); assay: cMet kinase assay; type: biochemical; conditions: 10 μM compound; read-out: cMet percent of inhibition
Method: as §1

[16] = target: CK1-alpha (Homo sapiens, UniProt P48729); assay: CK1-alpha kinase assay; type: biochemical; conditions: 10 μM compound; read-out: CK1-alpha percent of inhibition
CK1-alpha, sequence (P48729 whole entry): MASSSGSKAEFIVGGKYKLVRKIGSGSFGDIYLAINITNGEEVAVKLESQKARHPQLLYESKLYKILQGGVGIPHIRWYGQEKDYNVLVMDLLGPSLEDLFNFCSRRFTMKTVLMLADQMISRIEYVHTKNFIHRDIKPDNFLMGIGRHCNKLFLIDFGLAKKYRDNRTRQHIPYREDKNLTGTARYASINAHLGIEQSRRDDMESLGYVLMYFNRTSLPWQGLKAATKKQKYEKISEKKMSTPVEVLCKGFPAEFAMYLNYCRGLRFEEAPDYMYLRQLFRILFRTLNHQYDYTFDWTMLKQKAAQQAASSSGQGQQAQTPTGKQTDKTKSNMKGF
Method: as §1

[17] = target: P70S6K (Homo sapiens, UniProt P23443); assay: P70S6K kinase assay; type: biochemical; conditions: 10 μM compound; read-out: P70S6K percent of inhibition
Method: as §1

[18] = target: c-Raf (Homo sapiens, UniProt P04049); assay: c-Raf kinase assay; type: biochemical; conditions: 10 μM compound; read-out: c-Raf percent of inhibition
Method: as §1

[19] = target: Kit (Homo sapiens, UniProt P10721); assay: Kit kinase assay; type: biochemical; conditions: 10 μM compound; read-out: Kit percent of inhibition
Kit, sequence (P10721 26-976, species assumed): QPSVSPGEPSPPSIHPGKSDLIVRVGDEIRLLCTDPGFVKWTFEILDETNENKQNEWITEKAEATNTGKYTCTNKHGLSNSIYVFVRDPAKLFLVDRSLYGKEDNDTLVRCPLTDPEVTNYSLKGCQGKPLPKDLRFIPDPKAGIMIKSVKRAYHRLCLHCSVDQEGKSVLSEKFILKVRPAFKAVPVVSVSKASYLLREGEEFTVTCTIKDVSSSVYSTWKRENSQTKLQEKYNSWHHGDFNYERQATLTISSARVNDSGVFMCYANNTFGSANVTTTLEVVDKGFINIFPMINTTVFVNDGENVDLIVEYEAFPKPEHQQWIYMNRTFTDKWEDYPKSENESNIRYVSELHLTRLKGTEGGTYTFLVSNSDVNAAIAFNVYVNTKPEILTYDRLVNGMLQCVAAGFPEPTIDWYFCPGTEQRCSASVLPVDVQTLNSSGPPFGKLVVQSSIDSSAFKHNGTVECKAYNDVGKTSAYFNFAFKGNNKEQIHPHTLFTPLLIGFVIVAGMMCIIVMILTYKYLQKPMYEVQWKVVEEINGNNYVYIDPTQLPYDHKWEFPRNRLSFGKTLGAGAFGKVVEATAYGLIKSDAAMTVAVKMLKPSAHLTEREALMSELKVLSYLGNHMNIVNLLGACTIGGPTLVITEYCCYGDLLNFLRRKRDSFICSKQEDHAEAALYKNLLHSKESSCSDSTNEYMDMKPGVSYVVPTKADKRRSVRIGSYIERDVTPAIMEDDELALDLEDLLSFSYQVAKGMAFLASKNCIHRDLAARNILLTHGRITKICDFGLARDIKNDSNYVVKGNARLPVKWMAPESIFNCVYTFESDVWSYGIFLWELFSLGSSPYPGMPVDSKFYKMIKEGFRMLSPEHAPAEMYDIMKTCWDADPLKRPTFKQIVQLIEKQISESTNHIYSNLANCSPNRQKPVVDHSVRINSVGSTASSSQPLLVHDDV
Method: as §1

[20] = target: Jnk1a1 (Homo sapiens, UniProt P45983); assay: Jnk1a1 kinase assay; type: biochemical; conditions: 10 μM compound; read-out: Jnk1a1 percent of inhibition
Method: as §1

GSK-3beta, sequence (P49841 whole entry, species assumed): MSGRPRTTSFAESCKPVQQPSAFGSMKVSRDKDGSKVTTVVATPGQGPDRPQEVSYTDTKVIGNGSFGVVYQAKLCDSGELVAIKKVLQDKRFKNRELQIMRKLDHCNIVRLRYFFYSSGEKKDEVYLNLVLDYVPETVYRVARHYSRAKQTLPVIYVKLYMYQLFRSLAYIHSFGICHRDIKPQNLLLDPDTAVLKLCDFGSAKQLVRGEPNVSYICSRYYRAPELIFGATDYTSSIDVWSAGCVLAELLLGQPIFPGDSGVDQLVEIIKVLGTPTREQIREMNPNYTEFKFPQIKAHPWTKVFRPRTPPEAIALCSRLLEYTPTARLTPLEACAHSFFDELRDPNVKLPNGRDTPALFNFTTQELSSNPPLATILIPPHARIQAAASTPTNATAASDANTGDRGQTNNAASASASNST

| Structure (SMILES) | inhibition at 10 µM [1] | inhibition at 10 µM [2] | inhibition at 10 µM [3] | inhibition at 10 µM [4] | inhibition at 10 µM [5] | inhibition at 10 µM [6] | inhibition at 10 µM [7] | inhibition at 10 µM [8] | inhibition at 10 µM [9] | inhibition at 10 µM [10] | inhibition at 10 µM [11] | inhibition at 10 µM [12] | inhibition at 10 µM [13] | inhibition at 10 µM [14] | inhibition at 10 µM [15] | inhibition at 10 µM [16] | inhibition at 10 µM [17] | inhibition at 10 µM [18] | inhibition at 10 µM [19] | inhibition at 10 µM [20] | also measured |
| --- | --- | --- | --- | --- | --- | --- | --- | --- | --- | --- | --- | --- | --- | --- | --- | --- | --- | --- | --- | --- | --- |
| Fc1ccccc1Nc1ncnc2sc3c(c12)CCCC3 [Compound 1, (2-Fluoro-phenyl)-(5,6,7,8-tetrahydro-benzo[4,5]thieno[2,3-d]pyrimidin-4-yl)-amine] | 7% | 10% | 3% | -7% | 4% | -18% | 3% | -5% | 13% | 23% | 97% | 11% | 10% | -8% | 1% | 6% | -23% | 23% | 13% | -4% | melting point: 160.7 °C |
| Fc1cccc(Nc2ncnc3sc4c(c23)CCCC4)c1 [Compound 2, (3-Fluoro-phenyl)-(5,6,7,8-tetrahydro-benzo[4,5]thieno[2,3-d]pyrimidin-4-yl)-amine] | 3% | -19% | 6% | -6% | 4% | -22% | -1% | -7% | 6% | 19% | 98% | -5% | 25% | -14% | -10% | 6% | -26% | 16% | -5% | -3% | melting point: 210.6 °C; IC50 [11]: 12.4 nM |
| Brc1cccc(Nc2ncnc3sc4c(c23)CCCC4)c1 [Compound 3, (3-Bromo-phenyl)-(5,6,7,8-tetrahydro-benzo[4,5]thieno[2,3-d]pyrimidin-4-yl)-amine] | -10% | -36% | 12% | -9% | 1% | 23% | 4% | -27% | 17% | 11% | 100% | 8% | 17% | 0% | -8% | 17% | 4% | -4% | -2% | 4% | melting point: 169 °C; IC50 [11]: 2.61 nM |
| Nc1cccc(Nc2ncnc3sc4c(c23)CCCC4)c1 [Compound 4, N-(5,6,7,8-Tetrahydro-benzo[4,5]thieno[2,3-d]pyrimidin-4-yl)-benzene-1,3-diamine] | -2% | -7% | 7% | -7% | 0% | 6% | 16% | 1% | 24% | 12% | 98% | 6% | 9% | 8% | 2% | 5% | 2% | 14% | 2% | 6% | melting point: 164.3 °C (dec.); IC50 [11]: 16.8 nM |
| N#Cc1cccc(Nc2ncnc3sc4c(c23)CCCC4)c1 [Compound 5, 3-(5,6,7,8-Tetrahydro-benzo[4,5]thieno[2,3-d]pyrimidin-4-ylamino)-benzonitrile] | -6% | -7% | -2% | -7% | -5% | 19% | 9% | -25% | 8% | 10% | 99% | 7% | -5% | -5% | -4% | 7% | 1% | 0% | -5% | -3% | melting point: 194.6 °C |
| Fc1ccc(Nc2ncnc3sc4c(c23)CCCC4)cc1 [Compound 6, (4-Fluoro-phenyl)-(5,6,7,8-tetrahydro-benzo[4,5]thieno[2,3-d]pyrimidin-4-yl)-amine] | -1% | 4% | 6% | 44% | -12% | 19% | 11% | -8% | 12% | 8% | 99% | 9% | 11% | 5% | 4% | 7% | -7% | 12% | 7% | 15% | IC50 [11]: 10.5 nM |
| Clc1ccc(Nc2ncnc3sc4c(c23)CCCC4)cc1 [Compound 7, (4-Chloro-phenyl)-(5,6,7,8-tetrahydro-benzo[4,5]thieno[2,3-d]pyrimidin-4-yl)-amine] | 2% | -9% | 3% | -16% | 15% | -15% | -1% | -11% | 25% | 9% | 100% | -3% | 30% | -9% | -7% | 5% | -17% | -20% | 10% | -7% | melting point: 191.2 °C; IC50 [11]: 12.8 nM |
